Experimental data reported in PMC2790544 (Biochemistry, 2009).

Tested on: Sec(GLP1TM4-5)R
Test: cAMP response
Assay type: cell-based, human
Conditions: COS cells, LANCE, basal 2.1±0.5

With CC(C)C[C@H](NC(=O)CNC(=O)[C@H](CCC(N)=O)NC(=O)[C@H](CC(C)C)NC(=O)[C@H](CC(C)C)NC(=O)[C@H](CCCNC(=N)N)NC(=O)[C@H](CCC(N)=O)NC(=O)[C@H](CC(C)C)NC(=O)[C@H](CCCNC(=N)N)NC(=O)[C@H](C)NC(=O)CNC(=O)[C@H](CCC(=O)O)NC(=O)[C@H](CCCNC(=N)N)NC(=O)[C@H](CC(C)C)NC(=O)[C@H](CCCNC(=N)N)NC(=O)[C@H](CO)NC(=O)[C@H](CC(C)C)NC(=O)[C@H](CCC(=O)O)NC(=O)[C@H](CO)NC(=O)[C@@H](NC(=O)[C@H](Cc1ccccc1)NC(=O)[C@@H](NC(=O)CNC(=O)[C@H](CC(=O)O)NC(=O)[C@H](CO)NC(=O)[C@@H](N)Cc1c[nH]cn1)[C@@H](C)O)[C@@H](C)O)C(=O)N[C@H](C(N)=O)C(C)C [secretin] the “maximal cAMP level (Emax)” value was 149±15 picomoles per million cells.
